One experiment addresses T1, NO synthase (Rattus norvegicus, UniProt P29476).
T1 construct: the supernatant was then removed by decantation and frozen in portions at −80° C; from tissue; host or cells: rat cerebellum, 20,000 g supernatant of homogenate
As to the kind of experiment: HTS-NOS assay (NOS assay): conversion of radioactive arginine, cation-exchanger filter plate. The format is biochemical. The note with it: 10 μM. The method, boiled down:
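Percent inhibition was derived by comparing remaining radioactive arginine with compound-free controls. Arginine retained on phosphate cation-exchanger filters was counted after citrulline washout, following a 5-60 min room-temperature (25 °C) reaction of labelled arginine, NADPH-containing medium and rat cerebellar homogenate supernatant.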
With `CC(=O)OCc1ccc(-c2nc3cc(C)cc(C)n3c2N(C(C)=O)C2CCCCC2)o1` [Example 158, acetic acid 5-[3-(acetyl-cyclohexyl-amino)-5,7-dimethyl-imidazo[1,2-a]pyridin-2-yl]-furan-2-yl methyl ester], the “HTS-NOS assay: % inhibition (10 μM)” value is 54%.

On to `[C-]#[N+]CCCCCCN(C(C)=O)c1c(-c2ccco2)nc2cc(C)cc(C)n12` [Example 159, {6-[acetyl-(2-furan-2-yl-5,7-dimethyl-imidazo[1,2-a]pyridin-3-yl)-amino]-hexyl}-methylidyne-ammonium], for which the “HTS-NOS assay: % inhibition (10 μM)” value is 61%. With `CC(=O)N(c1c(-c2ccccc2C(F)(F)F)nc2cc(C)ccn12)C1CCCCC1` [Example 164, N-cyclohexyl-N-[7-methyl-2-(2-trifluorO-methyl-phenyl)-imidazo[1,2-a]pyridin-3-yl]-acetamide], the “HTS-NOS assay: % inhibition (10 μM)” value is 61%.

Turning to `CC(=O)OCc1ccc(-c2nc3cc(C)ccn3c2N(C(C)=O)C2CCCCC2)o1` [Example 167, acetic acid 5-[3-(acetyl-cyclohexyl-amino)-7-methyl-imidazo[1,2-a]pyridin-2-yl]-furan-2-yl methyl ester], the “HTS-NOS assay: % inhibition (10 μM)” value was 68%.

The experiment is the same for the next values; noted with them: read-out: HTS-NOS assay: % inhibition (10 μM).
In the case of `CC(=O)N(c1c(-c2ccc(C(=O)O)s2)nc2cnccn12)C(C)(C)C` [Example 153, 5-[3-(acetyl-tert-butyl-amino)-imidazo[1,2-a]pyrazin-2-yl]-thiophene-2-carboxylic acid], the inhibition at 10 µM was 78%. The same measure, in the same setting: as for `CC(=O)N(c1c(-c2ccc(C(=O)O)o2)nc2cc(C)cc(C)n12)C(C)(C)CC(C)(C)C` [Example 154, 5-{3-[acetyl-(1,1,3,3-tetramethyl-butyl)-amino]-5,7-dimethyl-imidazo[1,2-a]-pyridin-2-yl}-furan-2-carboxylic acid], the figure is 60%. Regarding `CC(=O)N(c1c(-c2ccc(CO)o2)nc2cc(C)cc(C)n12)C(C)(C)CC(C)(C)C` [Example 155, N-[2-(5-hydroxymethyl-furan-2-yl)-5,7-dimethyl-imidazo[1,2-a]pyridin-3-yl]-N-(1,1,3,3-tetramethyl-butyl)-acetamide], the inhibition at 10 µM is 50%. Turning to `CC(=O)N(c1c(C)cccc1C)c1c(-c2sccc2Br)nc2cc(C)cc(C)n12` [Example 156, N-[2-(3-bromo-thiophen-2-yl)-5,7-dimethyl-imidazo[1,2-a]pyridin-3-yl]-N-(2,6-dimethyl-phenyl)-acetamide], the inhibition at 10 µM is 74%. `CC(=O)N(c1c(C2CCCCC2)nc2cc(C)cc(C)n12)C(C)(C)C` [Example 157, N-tert-butyl-N-(2-cyclohexyl-5,7-dimethyl-imidazo[1,2-a]pyridin-3-yl)-acetamide]: the inhibition at 10 µM was 63%. For `CC(=O)N(c1c(C)cccc1C)c1c(-c2cccc(Cl)c2Cl)nc2cc(C)ccn12` [Example 160, N-[2-(2,3-dichloro-phenyl)-7-methyl-imidazo[1,2-a]pyridin-3-yl]-N-(2,6-dimethyl-phenyl)-acetamide], the inhibition at 10 µM worked out at 55%. For the compound `CC(=O)N(c1c(-c2sccc2Br)nc2ccccn12)C1CCCCC1` [Example 161, N-[2-(3-bromo-thiophen-2-yl)-imidazo[1,2-a]pyridin-3-yl]-N-cyclohexyl-acetamide], the inhibition at 10 µM was 51%. In the case of `CC(=O)N(c1c(-c2ccc(C)cc2)nc2cc(C)cc(C)n12)C(C)(C)CC(C)(C)C` [Example 162, N-(5,7-dimethyl-2-p-tolyl-imidazo[1,2-a]pyridin-3-yl)-N-(1,1,3,3-tetramethylbutyl)-acetamide], the inhibition at 10 µM is 67%. `CC(=O)N(c1c(-c2ccncc2)nc2cc(C)ccn12)C1CCCCC1` [Example 163, N-cyclohexyl-N-(7-methyl-2-pyridin-4-yl-imidazo[1,2-a]pyridin-3-yl)-acetamide]: the inhibition at 10 µM came to 63%. Still for that read-out and setting: next, `CC(=O)N(c1c(-c2ccco2)nc2c(Br)cc(Br)cn12)C(C)(C)CC(C)(C)C` [Example 165, N-(6,8-dibromo-2-furan-2-yl-imidazo[1,2-a]pyridin-3-yl)-N-(1,1,3,3-tetramethylbutyl)-acetamide]: 67%; `CC(=O)N(c1c(-c2ccncc2)nc2cc(C)ccn12)C(C)(C)CC(C)(C)C` [Example 166, N-(7-methyl-2-pyridin-4-yl-imidazo[1,2-a]pyridin-3-yl)-N-(1,1,3,3-tetramethylbutyl)-acetamide]: 61%; `CC(=O)N(c1c(-c2cccnc2)nc2cc(C)ccn12)C(C)(C)CC(C)(C)C` [Example 168, N-(7-methyl-2-pyridin-3-yl-imidazo[1,2-a]pyridin-3-yl)-N-(1,1,3,3-tetramethylbutyl)-acetamide]: 56%.

As for `CC(=O)N(c1c(C)cccc1C)c1c(-c2cccc(Cl)c2Cl)nc2cc(C)cc(C)n12` [Example 169, N-[2-(2,3-dichloro-phenyl)-5,7-dimethyl-imidazo[1,2-a]pyridin-3-yl]-N-(2,6-dimethyl-phenyl)-acetamide], the inhibition at 10 µM came to 57%. For `CC(=O)N(c1c(-c2ccc(C)o2)nc2cc(C)cc(C)n12)C1CCCCC1` [Example 170, N-cyclohexyl-N-[5,7-dimethyl-2-(5-methyl-furan-2-yl)-imidazo[1,2-a]pyridin-3-yl]-acetamide], the inhibition at 10 µM was determined as 65%. `CCCCN(C(C)=O)c1c(-c2cccc(OC)c2OC)nc2cc(C)cc(C)n12` [Example 171, N-butyl-N-[2-(2,3-dimethoxy-phenyl)-5,7-dimethyl-imidazo[1,2-a]pyridin-3-yl]-acetamide]: the inhibition at 10 µM was 63%. On the same count and under the same terms, as for `COc1ccccc1-c1nc2cc(C)cc(C)n2c1N(C(C)=O)C(C)(C)CC(C)(C)C` [Example 172, N-[2-(2-methoxy-phenyl)-5,7-dimethyl-imidazo[1,2-a]pyridin-3-yl]-N-(1,1,3,3-tetramethyl-butyl)-acetamide], the figure is 62%; as for `CC(=O)N(c1c(-c2ccc([N+](=O)[O-])o2)nc2cc(C)cc(C)n12)C1CCCCC1` [Example 173, N-cyclohexyl-N-[5,7-dimethyl-2-(5-nitro-furan-2-yl)-imidazo[1,2-a]pyridin-3-yl]-acetamide], 67%. Take `COC(=O)CN(C(C)=O)c1c(C)nc2cc(C)ccn12` [Example 174, [acetyl-(2,7-dimethyl-imidazo[1,2-a]pyridin-3-yl)-amino]-acetic acid methyl ester]: the inhibition at 10 µM was determined as 68%. As for `CC(=O)N(c1c(C)nc2cc(C)cc(C)n12)C1CCCCC1` [Example 175, N-cyclohexyl-N-(2,5,7-trimethyl-imidazo[1,2-a]pyridin-3-yl)-acetamide], the inhibition at 10 µM is 52%. For the compound `CC(=O)N(c1c(-c2ccc(C(=O)O)s2)nc2ccccn12)C(C)(C)CC(C)(C)C` [Example 176, 5-{3-[acetyl-(1,1,3,3-tetramethyl-butyl)-amino]-imidazo[1,2-a]pyridin-2-yl}-thiophene-2-carboxylic acid], the inhibition at 10 µM came to 50%. Turning to `CC(=O)N(c1c(-c2ccc(Cl)cc2Cl)nc2cc(C)cc(C)n12)C(C)(C)CC(C)(C)C` [Example 177, N-[2-(2,4-dichloro-phenyl)-5,7-dimethyl-imidazo[1,2-a]pyridin-3-yl]-N-(1,1,3,3-tetramethyl-butyl)-acetamide], the inhibition at 10 µM stood at 67%.

For `CC(=O)N(c1c(-c2ccc([N+](=O)[O-])o2)nc2cc(C)ccn12)C1CCCCC1` [Example 178, N-cyclohexyl-N-[7-methyl-2-(5-nitro-furan-2-yl)-imidazo[1,2-a]pyridin-3-yl]-acetamide], the inhibition at 10 µM was determined as 64%. As to `CC(=O)N(c1c(C)cccc1C)c1c(C(C)(C)C)nc2cc(C)cc(C)n12` [Example 179, N-(2-tert-butyl-5,7-dimethyl-imidazo[1,2-a]pyridin-3-yl)-N-(2,6-dimethylphenyl)-acetamide], the inhibition at 10 µM was found to be 60%. Same read-out and setting: next, `COc1ccccc1-c1nc2cc(C)cc(C)n2c1N(C(C)=O)c1c(C)cccc1C` [Example 180, N-(2,6-dimethyl-phenyl)-N-[2-(2-methoxy-phenyl)-5,7-dimethyl-imidazo[1,2-a]-pyridin-3-yl]-acetamide]: 54%; `CC(=O)N(c1c(-c2cccc(O)c2)nc2cc(C)cc(C)n12)C(C)(C)CC(C)(C)C` [Example 181, N-[2-(3-hydroxy-phenyl)-5,7-dimethyl-imidazo[1,2-a]pyridin-3-yl]-N-(1,1,3,3-tetramethyl-butyl)-acetamide]: 60%. For `CC(=O)N(c1c(C)cccc1C)c1c(-c2ccccc2F)nc2cc(C)cc(C)n12` [Example 182, N-(2,6-dimethyl-phenyl)-N-[2-(2-fluoro-phenyl)-5,7-dimethyl-imidazo[1,2-a]-pyridin-3-yl]-acetamide], the inhibition at 10 µM was found to be 53%. As to `CC(=O)N(c1c(-c2ccc(C(=O)O)s2)nc2cccc(C)n12)C(C)(C)C` [Example 183, 5-[3-(acetyl-tert-butyl-amino)-5-methyl-imidazo[1,2-a]pyridin-2-yl]-thiophene-2-carboxylic acid], the inhibition at 10 µM amounted to 50%. For the compound `COc1ccccc1-c1nc2cc(C)ccn2c1N(C(C)=O)c1c(C)cccc1C` [Example 184, N-(2,6-dimethyl-phenyl)-N-[2-(2-methoxy-phenyl)-7-methyl-imidazo[1,2-a]-pyridin-3-yl]-acetamide], the inhibition at 10 µM came to 51%. Turning to `CC(=O)N(c1c(-c2ccc(C)cc2)nc2cc(C)ccn12)C(C)(C)CC(C)(C)C` [Example 185, N-(7-methyl-2-p-tolyl-imidazo[1,2-a]pyridin-3-yl)-N-(1,1,3,3-tetramethyl-butyl)-acetamide], the inhibition at 10 µM was 55%. On the same count and under the same terms, as for `CC(=O)N(c1c(-c2ccc(C(=O)O)o2)nc2cc(C)ccn12)C(C)(C)CC(C)(C)C` [Example 186, 5-{3-[acetyl-(1,1,3,3-tetramethyl-butyl)-amino]-7-methyl-imidazo[1,2-a]pyridin-2-yl}-furan-2-carboxylic acid], the figure is 65%.

For orientation: inhibition means how much of the control response was suppressed.

These data come from patent publication US20040023972A1, “Use of substituted imidazo[1,2-a]-pyridin-, -pyrimidin-and-pyrazin-3-yl-amine derivatives in the preparation of medicaments for inhibiting NOS” (Gruenenthal GmbH, priority 2000, published 2004).
